Here are results for one compound from US10617622B2, “Hair restoration and/or hair growth promoting composition containing soyasaponin” (AMOREPACIFIC CORPORATION, priority 2015, dated 2020).

The subject of assay [1] is dermal papilla cells (DPC). Briefly: Expression of hair growth factor VEGF in dermal papilla cells (VEGF ELISA). The assay is classed as cell-based, human. Conditions: 20 ppm, 24 hours. As for the experimental part:
In order to evaluate the degree of expression of vascular endothelial growth factor (VEGF) which is a growth factor necessary for transition of hair into the anagen phase as a growth factor necessary for angiogenesis by soyasaponin Aa, an in vitro system was applied to treat the soyasaponin Aa, and the activity thereof was evaluated. For the experiment, 4×10^5 dermal papilla cells (DPC) (P.11) of a person was seeded in a 12-well plate and cultured in DMEM (Dulbecco's modified Eagle's medium; GibcoBRL, Gaithersburg, Md., USA) containing 10% FBS (fetal bovine serum) overnight. After the culture, the cells were treated with soyasaponin Aa at 20 ppm. DMSO was used as a negative control. After 24 hours, the mixing solution with treated soyasaponin Aa was collected, and the degree of VEGF expression by the soyasaponin Aa was confirmed using VEGF ELISA (Vascular endothelial growth factor Enzyme-Linked Immunosorbent Assay; R&D biosystems).
A general note: In an ELISA, binding on a coated surface is turned into a signal by an enzyme label.

In assay [2] the test system is human dermal papilla cell line. The assay is described as follows: Proliferation effect on hair follicle dermal papilla cells (WST-1 kit). The assay is classed as cell-based. Conditions: for hDPc proliferation (%): 24 hours after treatment, control = 100. As for the experimental part:
First, in the present invention, a human dermal papilla cell line was used (obtained from Prof. Kwan Oh Sang of dermatology in Seoul National University Hospital). The cell line was cultured for 24 hours in an incubator maintained at 5% CO2, 37° C. using DMEM (Dulbecco's modified Eagle's medium; Gibco BRL, Gaithersburg, Md., USA) containing 10% FBS, and then independently treated with soyasaponin Aa at 1 ppm, 10 ppm, and 20 ppm. DMSO was used as a negative control. Cell proliferation (%) was measured using a WST-1 kit (Roche) 24 hours after the treatment with the test materials.

Assay [3] concerns human hair follicle organ. The assay is described as follows: Hair growth promoting effect using human hair follicle organ culture. The assay is classed as cell-based. Conditions: for Average growth length (mm): 8 days after the treatment, hair follicles of a person. As for the experimental part:
The hair follicle organ was isolated from the scalp tissue of the occipital region of a person one at a time, and cultured in William's E medium (containing L-glutamine (2 mM), insulin (10 μg/ml), hydrocortisone (40 ng/ml), antibiotics (1%) antimycotic (1%)).
The hair follicles grown on the third day after culturing were selected and cut into 3 mm. As for the selected hair follicle tissues, those without drug treatment were used as a control group, and the hair follicle tissues were each treated with soyasaponin Aa at 1 ppm, 5 ppm, and 10 ppm. Then, the hair length was measured 8 days after the treatment.

Take `CC(=O)O[C@@H]1[C@@H](OC(C)=O)[C@H](O[C@@H]2[C@@H](O)[C@H](O[C@@H]3[C@H](O)C(C)(C)C[C@H]4C5=CC[C@@H]6[C@@]7(C)CC[C@H](O[C@@H]8O[C@H](C(=O)O)[C@@H](O)[C@H](O)[C@H]8O[C@@H]8O[C@H](CO)[C@H](O)[C@H](O)[C@H]8O[C@@H]8O[C@H](CO)[C@@H](O)[C@H](O)[C@H]8O)[C@](C)(CO)[C@@H]7CC[C@@]6(C)[C@]5(C)CC[C@@]34C)OC[C@@H]2O)OC[C@H]1OC(C)=O` [Soyasaponin Aa, soyasaponin Aa]: in assay [1] (dermal papilla cells), the “increase of VEGF expression compared to the control group” value is no less than 4 times. For the same compound, in assay [1] (dermal papilla cells of a person, DMSO negative control), the “VEGF (ng/ml) in culture medium” value amounted to 16.7 ng/mL. For the same compound, the “hDPc proliferation (%)” value in assay [2] (1 ppm) was determined as 119%; in assay [2] (10 ppm), 145%; in assay [2] (20 ppm) it was 172%. Further, the “rate of increase in dermal papilla cell proliferation compared with the control group” value in assay [2] (20 ppm) is no less than 1.7 times. Also, the “Average growth length (mm)” value in assay [3] (1 ppm) amounted to 1.71 mm; in assay [3] (5 ppm), 2.05 mm; in assay [3] (10 ppm) it was 2.46 mm. In addition, in assay [3] (10 ppm), the “hair length growth effect compared to the control group” value was 1.5 times.
